Experimental data reported in patent US8927760B2, “Colchicine derivatives or pharmaceutically acceptable salts thereof, method for preparing said derivatives, and pharmaceutical composition comprising said derivatives” (priority 2010, dated 2015).
Values joined by “and” are separate entries in the source; they are usually repeats but may differ in a detail not shown here. Identical values can stand only once. “Also recorded” adds a separate entry of the source.

What was measured:
[1] = tested on: streptozotocin induced diabetic Fischer 344 rats with transplanted Lewis rat islet cells; experiment: Allogeneic pancreatic islet cell transplantation - combined intraperitoneal administration; type: in vivo; conditions: for Average number of days for which islet cell function was maintained / Number of days for which islet cell function was maintained (individual rats): i.p. for 14 days
Description: (§1) Streptozotocin is a drug that destroys pancreatic islet cells to induce diabetes and is used to create experimental diabetic animal models. Allogeneic islets were transplanted into the livers of streptozotocin induced diabetic rat by injection into the portal vein. The functioning of transplanted islets was assessed by daily measurements of blood glucose levels. Islets were considered rejected when the blood glucose level was 200 mg/dl on two consecutive days.
(§2) 35 mg/kg of streptozotocin (50 mg/mL) dissolved in a 0.1 M citrate buffer solution (pH 4.5) was intraperitoneally injected into 8-week-old male Fischer 344 rats (F344) weighing about 200 to 220 g. Then, the blood glucose level was measured after 1 week, and the first day when the blood glucose level increased over 300 mg/dl and the increase was repeated more than twice was considered as the date of diagnosis of diabetes. The rats were used in transplantation 3 weeks after the administration of streptozotocin.
(§3) Pancreases of 8-week-old male Lewis rats were extracted on the 3 weeks after the diabetes was induced in Fischer rats, and islet cells were isolated. The isolated islet cells were cultured in a CO2 incubator at 37° C. for a day, and the cultured islet cells were transplanted into the diabetic Fischer rats.
However, considering the interaction between the two drugs, the two drugs were introduced in different syringes and injected to right and left sides of the abdominal cavity, respectively, and the measurement results are shown in the following table 4.

[2] = tested on: streptozotocin induced diabetic Fischer 344 rats with transplanted Lewis rat islet cells; experiment: Allogeneic pancreatic islet cell transplantation - single intraperitoneal administration; type: in vivo
Description: as §1, §2, §3
Cyclosporin (5 mg/kg), colchicine (10 μg/kg and 40 μg/kg), and colchicine derivative compounds (compounds 1, 7, 9, 14, 15, 17, 18, 22, and 23; 50 μg/kg) were administered to the Fischer rats, to which the islet cells were transplanted, for 14 days from the date of transplantation, and the maintenance of blood glucose levels was examined until rejection occurred from the date of transplantation.

[3] = tested on: Wistar rat (recipient) with transplanted Lewis rat heart; experiment: Allogeneic heart transplantation (abdominal heterotopic, Lewis donor to Wistar recipient); type: in vivo
Description: Hearts of 8-week-old Lewis rats (donor) weighing about 250 g were extracted and performed abdominal heterotopic heart transplantation into the abdominal cavity of 8-week-old Wistar rat (recipient) weight about 300 g by cross-clamping caudal vena cava and the abdominal aorta of recipient both proximally and distally to the anastomotic site.
The heart rate of each rat in an untreated control group and the experimental groups was measured by abdominal palpation from the date of the heart transplant, and the heart rate was classified as ++++ (strong and fast heartbeat), +++ (strong or fast heartbeat), ++ (faint and slow but distinct heartbeat), + (faint but steady heartbeat), and ±0 (intermittent heartbeat).

[4] = tested on: spleen cells of rats; experiment: Cytotoxicity test in rat spleen cells (CCK, absorbance at 450 nm); type: cell-based; conditions: 72 hours, at concentrations of 100 ng to 10000 ng/mL
Description: Cytotoxicity test was performed to determine the toxicity of immunosuppressant candidate materials by mixing the immunosuppressant candidate materials with spleen cells of rats in culture media and measuring the degree of toxicity in the cells. […] The concentrations of the drugs were 0.1, 1, 10, 100, 1000, 10000, and 100000 ng/mL. The cells were cultured in a CO2 incubator for 72 hours, and then each well was treated with 10 μl of CCK-SK (Dojindo, Japan). Subsequently, the cells were cultured again in the CO2 incubator for 4 hours, and then the absorbance (O.D. value) was measured at 450 nm using a spectrophotometer.

[5] = single administration, 10 μg/kg i.p. for 14 days
[6] = 10 μg/kg intravenously for 14 days
[7] = 50 μg/kg combined with CsA (5 mg/kg)
[8] = single administration, 50 μg/kg i.p. for 14 days

SMILES: COc1cc2c(c(OC)c1OC)-c1ccc(OC)c(=O)cc1[C@@H](NC(C)=O)CC2 [Colchicine, colchicine]
- Average number of days for which islet cell function was maintained ([1]; 10 μg/kg combined with CsA (5 mg/kg)): 8 days
- Average number of days for which islet cell function was maintained ([1]; 10 μg/kg combined with CsA (5 mg/kg), listed as colchicine): 8 days
- increase of days of islet cell function compared to the single administration ([1]; 10 μg/kg combined with cyclosporin A (5 mg/kg)): about 3 days
- death of rats ([2]; 40 μg/kg alone, four rats, listed as colchicines): two of the four rats were dead; also recorded: one rat was dead suddenly after 9 days
- weight reduction ([2]; 40 μg/kg alone, on the second day, the two rats that died): 15%
- difference from the control group in maintenance of blood glucose levels ([2]; single administration): no significant differences from the control group
- Average number of days for which islet cell function was maintained [2, 5]: 5 days
- Number of days for which islet cell function was maintained (individual rats) [2, 5]: 5, 5 day
- Average number of days for which islet cell function was maintained ([2]; single administration, 40 μg/kg i.p. for 14 days): 6 days
- Number of days for which islet cell function was maintained (individual rats) ([2]; single administration, 40 μg/kg i.p. for 14 days, * = death): 2 day (2×) and 6 day and 9 day
- Number of days for which islet cell function was maintained (individual rats) ([2]; single administration, 40 μg/kg i.p. for 14 days, * = death, listed as colchicines): 6 days
- Average number of days for which heart rate was kept [3, 6]: >70 ± 100.5 days
- Number of days for which heart rate was kept (individual rats) [3, 6]: 12 day (2×) and > 186 day
- Number of days for which heart rate was kept (individual rats) ([3]; 10 μg/kg intravenously for 14 days, listed as colchicine): 12 day and over 186 day
- Average number of days for which heart rate was kept ([3]; 40 μg/kg intravenously for 14 days): >73.3 ± 85.4 days
- Number of days for which heart rate was kept (individual rats) ([3]; 40 μg/kg intravenously for 14 days, * = death): 13 days and 14 days and > 32 days and > 187 days
- Number of days for which heart rate was kept (individual rats) ([3]; 40 μg/kg intravenously for 14 days, * = death, listed as colchicine): 13 day and 14 day and over 187 day

SMILES: COc1cc2c(c(OC)c1OC)-c1ccc(OC)c(=O)cc1C(NC(=O)OCc1ccccc1)CC2 (stereo not shown) [Compound 1, (1,2,3,10-tetramethoxy-9-oxo-5,6,7,9-tetrahydro-benzo[a]heptalen-7-yl)-carbamic acid benzyl ester]
- Average number of days for which islet cell function was maintained [1, 7]: 27 days
- Number of days for which islet cell function was maintained (individual rats) [1, 7]: 27, 27 day
- cytotoxicity [4]: no cytotoxicity

SMILES: COc1ccc(COC(=O)NC2CCc3cc(OC)c(OC)c(OC)c3-c3ccc(OC)c(=O)cc32)cc1 (stereo not shown) [Compound 7, (1,2,3,10-tetramethoxy-9-oxo-5,6,7,9-tetrahydro-benzo[a]heptalen-7-yl)-carbamic acid 4-methoxy benzyl ester]
- Average number of days for which islet cell function was maintained [1, 7]: >61.6 days
- Average number of days for which islet cell function was maintained ([1]; 100 μg/kg combined with CsA (5 mg/kg)): >72 days
- Average number of days for which islet cell function was maintained [2, 8]: 5.7 ± 1.16 days
- Number of days for which islet cell function was maintained (individual rats) [2, 8]: 5 day (2×) and 7 day
- cytotoxicity [4]: no cytotoxicity

SMILES: COc1cc2c(c(OC)c1OC)-c1ccc(OC)c(=O)cc1C(NC(=O)OCc1ccc(C(C)C)cc1)CC2 (stereo not shown) [Compound 9, (1,2,3,10-tetramethoxy-9-oxo-5,6,7,9-tetrahydro-benzo[a]heptalen-7-yl)-carbamic acid 4-isopropyl benzyl ester]
- Average number of days for which islet cell function was maintained [1, 7]: >55.7 days
- Average number of days for which islet cell function was maintained [2, 8]: 5.7 ± 0.58 days
- Number of days for which islet cell function was maintained (individual rats) [2, 8]: 5 days to days and 5 day and 6 day
- cytotoxicity [4]: no cytotoxicity

SMILES: COc1cc2c(c(OC)c1OC)-c1ccc(OC)c(=O)cc1C(NC(=O)OCC1c3ccccc3-c3cccc(C)c31)CC2 (stereo not shown) [Compound 15, (1,2,3,10-tetramethoxy-9-oxo-5,6,7,9-tetrahydro-benzo[a]heptalen-7-yl)-carbamic acid 1-methyl-9H-fluoren-9-ylmethyl ester]
- Average number of days for which islet cell function was maintained [1, 7]: 24 days
- Number of days for which islet cell function was maintained (individual rats) [1, 7]: 24, 24 day
- cytotoxicity [4]: no cytotoxicity

SMILES: COc1cc2c(c(OC)c1OC)-c1ccc(OC)c(=O)cc1C(NC(=O)OCC1c3cc(C(C)(C)C)ccc3-c3ccc(C(C)(C)C)cc31)CC2 (stereo not shown) [Compound 17, (1,2,3,10-tetramethoxy-9-oxo-5,6,7,9-tetrahydro-benzo[a]heptalen-7-yl)-carbamic acid 2,7-di-tert-butyl-9H-fluoren-9-ylmethyl ester]
- Average number of days for which islet cell function was maintained [1, 7]: 36.5 days
- cytotoxicity [4]: no cytotoxicity

SMILES: COc1cc2c(c(OC)c1OC)-c1ccc(OC)c(=O)cc1C(NC(=O)OCCC1c3ccccc3-c3ccccc31)CC2 (stereo not shown) [Compound 18, (1,2,3,10-tetramethoxy-9-oxo-5,6,7,9-tetrahydro-benzo[a]heptalen-7-yl)-carbamic acid 2-(9H-fluoren-9-yl)-ethyl ester]
- Average number of days for which islet cell function was maintained [1, 7]: 28 days
- cytotoxicity [4]: no cytotoxicity

SMILES: COc1ccc(CCC(=O)NC2CCc3cc(OC)c(OC)c(OC)c3-c3ccc(OC)c(=O)cc32)cc1 (stereo not shown) [Compound 22, 3-(4-methoxy-phenyl)-N-(1,2,3,10-tetramethoxy-9-oxo-5,6,7,9-tetrahydro-benzo[a]heptalen-7-yl)-propionamide]
- Average number of days for which islet cell function was maintained [1, 7]: 20.7 days
- cytotoxicity [4]: no cytotoxicity

SMILES: COc1cc2c(c(OC)c1OC)-c1ccc(OC)c(=O)cc1C(NC(=O)CC1c3ccccc3-c3ccccc31)CC2 (stereo not shown) [Compound 23, 2-(9H-fluoren-9-yl)-N-(1,2,3,10-tetramethoxy-9-oxo-5,6,7,9-tetrahydro-benzo[a]heptalen-7-yl)-acetamide]
- Average number of days for which islet cell function was maintained [1, 7]: 26.5 days
- cytotoxicity [4]: no cytotoxicity
